Experimental findings from patent US20230119806A1, “ANTIGEN SPECIFIC EPITOPE BASED ANTI-INFECTIVE VACCINES” (VAXIL BIOTHERAPEUTICS LTD., priority 2020, published 2023) are described below.

Assay [1] concerns BALB/c and C57BL/6 mice. Nature of the assay: ELISA of sera of mice immunized with signal peptides (antibody response). The class given is in vivo. The settings on record: for antibody response against VXL-301 (ELISA): VXL-301 coated plate; for antibody responses of immunized mice (ELISA, overall): summary of BALB/c and C57BL/6 ELISA results; for antibody response against VXL-303 (ELISA): VXL-303 coated plate. Here is the method: (§1) BALB/c and C57BL/6 mice were immunized by subcutaneous (SC) injections with 100 μg of individual SPs or a SP mixture and with intraperitoneal injections of 100 ng of mouse granulocyte macrophage colony stimulating factor (mGM-CSF) three times at 7-day intervals.
To monitor if antibody response was developed against the SPs an enzyme-linked immunosorbent assay (ELISA) was performed with sera obtained on days 10 and 20 post the last immunization when VXL-301, or VXL-302, or VXL-303 or VXL-201c (negative control) were coated on the ELISA plate.

The test system of assay [2] is splenocytes of immunized C57BL/6 mice. In words: ELISpot of interleukin 2 after SP stimulation of splenocytes. The class given is cell-based. The settings on record: SP stimulation of splenocytes of immunized C57BL/6 mice. On the procedure: as §1
For assay [3], the system named is splenocytes of immunized BALB/c mice. In words: ELISpot of interferon gamma after SP stimulation of splenocytes. The class given is cell-based. Here is the method: as §1
Assay [4] relates to Peripheral blood mononuclear cells (PBMCs) from healthy donors. Nature of the assay: Ex vivo immunogenicity: proliferation of PBMCs stimulated by SP-loaded autologous dendritic cells. The class given is cell-based. As to conditions: healthy donor PBMCs; for proliferation in CD4+ and CD8+ T cells / proliferation versus positive control SPs: SP-loaded autologous DCs. On the procedure:
Immunogenicity is assessed by quantifying proliferation of T cells in response to exposure to peptides. To this end, healthy donor peripheral blood mononuclear cells (PBMCs) are marked by a fluorescent dye and exposed to either the naked peptide or to autologous antigen presenting cells (APCs) pre-loaded with the SP. Phytohaemagglutinin (PHA), or tetanus toxoid, (TT), or previously tested SPs, serve as a positive control for maximum stimulation. Unloaded APCs, or medium, or human Fab fragments serve as negative controls. Proliferation is calculated by the increase of CD3+ T cells and the fraction of cells with different number of cell divisions assessed by flow cytometry.
Peripheral blood mononuclear cells (PBMCs) from healthy donors were stimulated by SP-loaded autologous dendritic cells (DCs).

Setting [5] is: BALB/c mice, sera day 10 post last immunization, 100 μg SC + mGM-CSF, three times.
Setting [6] is: C57BL/6 mice, sera day 20 post last immunization.

Consider MFVFLVLLPLVSSQC [VXL-301], for which the “antibody response against VXL-301 (ELISA)” value in assay [1] (setting [5]) is “greatest antibody response”. Further, in assay [1] (setting [6]), the “antibody response against VXL-301 (ELISA)” value is on record as “highest antibody responses”. The “antibody responses of immunized mice (ELISA, overall)” value in assay [1] is on record as “demonstrated antibody responses”. Moreover, the “secretion of interleukin 2 (ELISpot)” value in assay [2] is “induced secretion of interleukin 2 primarily in the VXL-301- and the SP mixture-immunized groups”. In addition, the “secretion of interferon gamma (ELISpot)” value in assay [3] was “induced secretion of interferon gamma primarily in the VXL-301- and the SP mixture-immunized groups”. Also, in assay [4], the “proliferation versus unloaded DCs (non-specific proliferation)” value is given as “proliferation that was greater than unloaded DCs”; the “proliferation in CD4+ and CD8+ T cells” value was “evident in both CD4+ cytotoxic T cells and CD8+ helper T cells”; the “proliferation versus positive control SPs” value is “comparable to the levels observed for positive control SPs”.

Take MKFLVFLGIITTVAA [VXL-303]: the “antibody response against VXL-303 (ELISA)” value in assay [1] (setting [5]) is “greatest antibody response”. In addition, the “antibody response against VXL-303 (ELISA)” value in assay [1] (setting [6]) is on record as “highest antibody responses”. The “antibody responses of immunized mice (ELISA, overall)” value in assay [1] is “demonstrated antibody responses”. In addition, the “secretion of interleukin 2 (ELISpot)” value in assay [2] is “induced secretion of interleukin 2 primarily in the VXL-303- and the SP mixture-immunized groups”. In addition, the “secretion of interferon gamma (ELISpot)” value in assay [3] is “induced secretion of interferon gamma primarily in the VXL-303- and the SP mixture-immunized groups”. Further, in assay [4], the “proliferation versus unloaded DCs (non-specific proliferation)” value is “proliferation that was greater than unloaded DCs”; the “proliferation in CD4+ and CD8+ T cells” value is “evident in both CD4+ cytotoxic T cells and CD8+ helper T cells”; the “proliferation versus positive control SPs” value is “comparable to the levels observed for positive control SPs”.

In the case of “MKIILFLALITLATC [VXL-302, signal peptide of SARS-CoV-2 ORF7a]”, the “secretion of interleukin 2 (ELISpot)” value in assay [2] is reported as “induced secretion of interleukin 2 primarily in the VXL-302-immunized group”. For the same sequence, the “secretion of interferon gamma (ELISpot)” value in assay [3] was “induced secretion of interferon gamma primarily in the VXL-302 immunized group”. Further, in assay [4], the “proliferation versus unloaded DCs (non-specific proliferation)” value is given as “proliferation that was greater than unloaded DCs”; the “proliferation in CD4+ and CD8+ T cells” value is “evident in both CD4+ cytotoxic T cells and CD8+ helper T cells”; the “proliferation versus positive control SPs” value is “comparable to the levels observed for positive control SPs”.
